In ChEMBL document CHEMBL4390659, “Molecular hybridization approach for phenothiazine incorporated 1,2,3-triazole hybrids as promising antimicrobial agents: Design, synthesis, molecular docking and in silico ADME studies” (Eur J Med Chem, 2019):
Converted amounts (≈) assume the structure as drawn.

Experiments:
Escherichia coli = test: Antibacterial activity against Escherichia coli incubated for 24 hrs by agar dilution method; type: functional
[1] = tested on: Mycobacterium tuberculosis; test: Antibacterial activity against Mycobacterium tuberculosis H37Rv ATCC 27294 assessed as reduction in mycobacterial growth incubated for 5 days by MABA method; type: functional; details: H37Rv ATCC 27294, 120 h
Staphylococcus aureus = test: Antibacterial activity against Staphylococcus aureus incubated for 24 hrs by agar dilution method; type: functional
Pseudomonas aeruginosa = test: Antibacterial activity against Pseudomonas aeruginosa incubated for 24 hrs by agar dilution method; type: functional
Vero = test: Cytotoxicity against African green monkey Vero cells assessed as reduction in cell viability incubated for 72 hrs by MTT assay; type: cell-based; details: Chlorocebus sabaeus
[2] = Cytotoxicity against African green monkey Vero cells assessed as cell growth inhibition at 6.25 ug/ml incubated for 72 hrs by MTT assay relative to control; type: cell-based; details: chlorocebus sabaeus, read-out: GI
[3] = Selectivity index, ratio of IC50 for African green monkey Vero cells to MIC for Mycobacterium tuberculosis H37Rv ATCC 27294; type: toxicity; details: read-out: Selectivity Index
[4] = tested on: Mycobacterium tuberculosis; test: Potency index, ratio of ciprofloxacin MIC to test compound MIC against Mycobacterium tuberculosis H37Rv ATCC 27294; type: functional
[5] = tested on: Mycobacterium tuberculosis; test: Potency index, ratio of streptomycin MIC to test compound MIC against Mycobacterium tuberculosis H37Rv ATCC 27294; type: functional
[6] = tested on: Mycobacterium tuberculosis; test: Potency index, ratio of pyrazinamide MIC to test compound MIC against Mycobacterium tuberculosis H37Rv ATCC 27294; type: functional

Row | SMILES | MIC (Escherichia coli) [µg/mL] | MIC [1] | MIC (Staphylococcus aureus) [µg/mL] | MIC (Pseudomonas aeruginosa) [µg/mL] | IC50 (Vero) [µg/mL] | inhibition at 72 h, 6.25 ug/ml [2] [%] | selectivity ratio [3] | Ratio [4] | Ratio [5] | Ratio [6]
1 | Cc1ccc(Cn2cc(COCc3ccc4c(c3)Sc3ccccc3N4C)nn2)cc1 | 100 (≈ 233 µM) | 58.3 µM | 50 (≈ 117 µM) | 100 (≈ 233 µM) |  |  |  |  |  | 
2 | N#Cc1ccc(Cn2cc(CN3c4ccc(/C=N/NC(=O)c5ccccc5)cc4Sc4ccc(C(F)(F)F)cc43)nn2)cc1 | 50 (≈ 82 µM) | 2.62 µM | 50 (≈ 82 µM) | 50 (≈ 82 µM) | 552 (≈ 905 µM) | 12.3 | 44.7 | 4 | 4 | 
3 | N#Cc1ccc(Cn2cc(CN3c4ccccc4Sc4ccccc43)nn2)cc1 | 12.5 (≈ 31.6 µM) | 1.6 µg/mL | 6.25 (≈ 15.8 µM) | 12.5 (≈ 31.6 µM) | 1320 (≈ 3340 µM) | 11.1 | 119 | 4 | 4 | 2
4 | CN1c2ccccc2Sc2cc(COCc3cn(Cc4ccccc4)nn3)ccc21 | 50 (≈ 121 µM) | 60.3 µM | 50 (≈ 121 µM) | 100 (≈ 241 µM) |  |  |  |  |  | 
5 | CN1c2ccccc2Sc2cc(COCc3cn(Cc4ccccc4F)nn3)ccc21 | 25 (≈ 57.8 µM) | 28.9 µM | 25 (≈ 57.8 µM) | 50 (≈ 116 µM) |  |  |  |  |  | 
6 | Cc1ccc(C(=O)N/N=C/c2ccc3c(c2)Sc2ccccc2N3Cc2cn(Cc3ccc(C#N)cc3)nn2)cc1 | 50 (≈ 90 µM) | 2.87 µM | 25 (≈ 45 µM) | 100 (≈ 180 µM) | 456 (≈ 821 µM) | 10.6 | 42.9 | 4 | 4 | 
7 | N#Cc1ccc(Cn2cc(CN3c4ccc(/C=N/NC(=O)c5ccc(F)cc5)cc4Sc4ccc(C(F)(F)F)cc43)nn2)cc1 | 12.5 (≈ 19.9 µM) | 2.55 µM | 6.25 (≈ 9.96 µM) | 12.5 (≈ 19.9 µM) | 647 (≈ 1030 µM) | 8.42 | 76.8 | 4 | 4 | 2
8 | N#Cc1ccc(Cn2cc(CN3c4ccc(/C=N/NC(=O)c5ccc([N+](=O)[O-])cc5)cc4Sc4ccc(C(F)(F)F)cc43)nn2)cc1 | 50 (≈ 76.4 µM) | 2.44 µM | 25 (≈ 38.2 µM) | 50 (≈ 76.4 µM) | 1130 (≈ 1720 µM) | 8.91 | 126 | 4 | 4 | 2
9 | CN1c2ccccc2Sc2cc(/C=N/OCc3cn(Cc4ccc(F)cc4)nn3)ccc21 | 25 (≈ 56.1 µM) | 56.1 µM | 12.5 (≈ 28.1 µM) | 25 (≈ 56.1 µM) |  |  |  |  |  | 
10 | COc1ccc(Cn2cc(COCc3ccc4c(c3)Sc3ccccc3N4C)nn2)cc1 | 100 (≈ 225 µM) | 56.2 µM | 50 (≈ 112 µM) | 50 (≈ 112 µM) |  |  |  |  |  | 
11 | Cc1ccc(C(=O)N/N=C/c2ccc3c(c2)Sc2ccc(C(F)(F)F)cc2N3Cc2cn(Cc3ccc(C#N)cc3)nn2)cc1 | 50 (≈ 80.2 µM) | 2.56 µM | 25 (≈ 40.1 µM) | 50 (≈ 80.2 µM) | 1570 (≈ 2510 µM) | 6.28 | 250 | 4 | 4 | 2
12 | CN1c2ccccc2Sc2cc(/C=N/OCc3cn(Cc4ccccc4F)nn3)ccc21 | 25 (≈ 56.1 µM) | 56.1 µM | 12.5 (≈ 28.1 µM) | 25 (≈ 56.1 µM) |  |  |  |  |  | 
13 | Fc1ccccc1Cn1cc(CN2c3ccccc3Sc3ccccc32)nn1 | 12.5 (≈ 32.2 µM) | 1.6 µg/mL | 12.5 (≈ 32.2 µM) | 25 (≈ 64.4 µM) | 924 (≈ 2380 µM) | 3.33 | 278 | 4 | 4 | 2
14 | CN1c2ccccc2Sc2cc(COCc3cn(Cc4ccc([N+](=O)[O-])cc4)nn3)ccc21 | 50 (≈ 109 µM) | 54.4 µM | 25 (≈ 54.4 µM) | 50 (≈ 109 µM) |  |  |  |  |  | 
15 | Cc1ccc(Cn2cc(CN3c4ccccc4Sc4ccccc43)nn2)cc1 | 100 (≈ 260 µM) | 6.25 µg/mL | 50 (≈ 130 µM) | 100 (≈ 260 µM) |  |  |  |  |  | 
16 | CN1c2ccccc2Sc2cc(COCc3cn(Cc4ccc(F)cc4)nn3)ccc21 | 25 (≈ 57.8 µM) | 28.9 µM | 25 (≈ 57.8 µM) | 50 (≈ 116 µM) |  |  |  |  |  | 

Row | SMILES | MIC (Escherichia coli) [µg/mL] | MIC [1] | MIC (Staphylococcus aureus) [µg/mL] | MIC (Pseudomonas aeruginosa) [µg/mL] | IC50 (Vero) [µg/mL] | inhibition at 72 h, 6.25 ug/ml [2] [%] | selectivity ratio [3] | Ratio [4] | Ratio [5] | Ratio [6]
17 | CN1c2ccccc2Sc2cc(COCc3cn(Cc4ccc(C#N)cc4)nn3)ccc21 | 25 (≈ 56.9 µM) | 28.4 µM | 12.5 (≈ 28.4 µM) | 25 (≈ 56.9 µM) |  |  |  |  |  | 
18 | CN1c2ccccc2Sc2cc(/C=N/OCc3cn(Cc4ccccc4)nn3)ccc21 | 100 (≈ 234 µM) | 58.4 µM | 50 (≈ 117 µM) | 50 (≈ 117 µM) |  |  |  |  |  | 
19 | N#Cc1ccc(Cn2cc(CN3c4ccccc4Sc4ccc(C(F)(F)F)cc43)nn2)cc1 |  | 1.6 µg/mL |  |  | 2080 (≈ 4500 µM) | 5 | 417 | 4 | 4 | 2
20 | O=[N+]([O-])c1ccc(Cn2cc(CN3c4ccccc4Sc4ccccc43)nn2)cc1 | 50 (≈ 120 µM) | 1.6 µg/mL | 50 (≈ 120 µM) | 100 (≈ 241 µM) | 484 (≈ 1160 µM) | 11.4 | 42.5 | 4 | 4 | 2
21 | COc1ccc(Cn2cc(CN3c4ccccc4Sc4ccccc43)nn2)cc1 | 25 (≈ 62.4 µM) | 1.6 µg/mL | 25 (≈ 62.4 µM) | 50 (≈ 125 µM) | 6040 (≈ 15100 µM) | 7.57 | 797 | 4 | 4 | 2
22 | Fc1ccc(Cn2cc(CN3c4ccccc4Sc4ccccc43)nn2)cc1 | 12.5 (≈ 32.2 µM) | 3.12 µg/mL | 12.5 (≈ 32.2 µM) | 12.5 (≈ 32.2 µM) | 3800 (≈ 9790 µM) | 8.34 | 456 |  |  | 
23 | N#Cc1ccc(Cn2cc(CN3c4ccccc4Sc4cc(/C=N/NC(=O)c5cccnc5)ccc43)nn2)cc1 | 25 (≈ 46.1 µM) | 2.94 µM | 12.5 (≈ 23 µM) | 50 (≈ 92.1 µM) | 1610 (≈ 2970 µM) | 8.42 | 192 | 4 | 4 | 
24 | CN1c2ccccc2Sc2cc(/C=N/OCc3cn(Cc4ccc([N+](=O)[O-])cc4)nn3)ccc21 | 50 (≈ 106 µM) | 52.9 µM | 25 (≈ 52.9 µM) | 100 (≈ 212 µM) |  |  |  |  |  | 
25 | CN1c2ccccc2Sc2cc(/C=N/OCc3cn(Cc4ccc(C#N)cc4)nn3)ccc21 | 25 (≈ 55.2 µM) | 27.6 µM | 12.5 (≈ 27.6 µM) | 25 (≈ 55.2 µM) |  |  |  |  |  | 
26 | Cc1ccc(Cn2cc(CO/N=C/c3ccc4c(c3)Sc3ccccc3N4C)nn2)cc1 | 50 (≈ 113 µM) | 56.6 µM | 25 (≈ 56.6 µM) | 100 (≈ 226 µM) |  |  |  |  |  | 
27 | c1ccc(Cn2cc(CN3c4ccccc4Sc4ccccc43)nn2)cc1 | 50 (≈ 135 µM) | 6.25 µg/mL | 50 (≈ 135 µM) | 100 (≈ 270 µM) |  |  |  |  |  | 
28 | COc1ccc(Cn2cc(CO/N=C/c3ccc4c(c3)Sc3ccccc3N4C)nn2)cc1 | 100 (≈ 219 µM) | 54.6 µM | 50 (≈ 109 µM) | 100 (≈ 219 µM) |  |  |  |  |  | 
29 | O=C(O)c1cn(C2CC2)c2cc(N3CCNCC3)c(F)cc2c1=O [CIPROFLOXACIN] |  |  | 2 (≈ 6.04 µM) | 4 (≈ 12.1 µM) |  |  |  |  |  | 
30 | NNC(=O)c1ccncc1 [ISONIAZID] |  | 3.12 µg/mL |  |  |  |  |  |  |  | 
31 | NC(=O)c1cnccn1 [PYRAZINAMIDE] |  | 3.12 µg/mL |  |  |  |  |  |  |  | 
32 | CN[C@@H]1[C@H](O[C@H]2[C@H](O[C@H]3[C@H](O)[C@@H](O)[C@H](N=C(N)N)[C@@H](O)[C@@H]3N=C(N)N)O[C@@H](C)[C@]2(O)C=O)O[C@@H](CO)[C@H](O)[C@H]1O [STREPTOMYCIN] |  | 6.25 µg/mL |  |  |  |  |  |  |  | 
